Experimental data as given in PMC10699557, “A recombinant approach for stapled peptide discovery yields inhibitors of the RAD51 recombinase” (Chemical Science, 2023).
“Also recorded” adds a separate entry of the source. Numbered stars: 1 amine (or outer) side, 2 acyl side, 3 side chain; on linkers, the order of the positions; unused ones are H or OH. Bridge positions count the residues as written; N and C are the ends. Peptide text beside a SMILES is read from it. X1 = Nc1nc(CC[*:1])cc(CC[*:2])n1

Tests used:
[1] = molecular target: monomeric version of RAD51 (HumRadA22) (Pyrococcus furiosus, UniProt O74036); assay: Fluorescence polarisation (FP) competition assay: displacement of fluorescein-labelled BRC4 repeat; format: binding, archaeal RadA mutant with human Rad51 surface residues; details: read-out: FP competition KD, nM, Stapled; stapled product (linker DVT or DVP as in Table 1); 100 nM HumRadA22, 10 nM BRC4-fluorescein; 20 mM CHES pH 9.5, 150 mM NaCl, 0.1% BSA, 0.1% Tween-20; KD calculated from IC50; single titration, three technical replicates per point
Description: We prepared all stapled peptides from small-scale bacterial cultures as GB1/C-His8 fusions and cyclised them with the DVT linker. For peptides SP10, SP11, SP12 and SP15, correct stapling was confirmed by MS, showing a similar composition to SP2 (Fig. S15–S18 ^†). Thus, we confirm that the pseudo-dilution approach is robust in yielding almost exclusively the cyclised product, irrespective of whether a helical or non-helical motif is being constrained. To examine the effect of introducing a covalent staple on affinity, a mock reaction was done in parallel for each peptide by splitting the IMAC elution into two halves and adding DMSO to the mock control instead of the linker. TCEP (500 μM) was included in the mock reaction to maintain the peptide in linear form by preventing disulfide formation. The peptides were tested in a fluorescence polarisation (FP) assay monitoring the displacement of a fluorescently-labelled BRC4 repeat from a monomeric version of RAD51 (HumRadA22), as reported previously.[25] […]
Fluorescence polarisation competition assay
FP competition assay was a modified version of a protocol described previously. Fluorescein-labelled HsBRC4 probe for this assay was kindly provided by Dr Laurens Lindenburg (Hollfelder group, Department of Biochemistry, University of Cambridge). Black 384-well flat-bottom microplates (Corning, 3821) were used with a 40 μl final reaction volume in all measurements. Following buffer conditions were used: 20 mM CHES pH 9.5, 150 mM NaCl, 0.1% BSA, 0.1% Tween-20. Each reaction contained 100 nM HumRadA22 and 10 nM BRC4-fluorescein. Two-fold serial dilutions of stapled peptides were added to the reactions. A free probe control reaction containing only 10 nM BRC4-fluorescein was used to calibrate gain and focal height. FP measurements were performed on Pherastar FX or Clariostar Plus (BMG Labtech) plate readers equipped with an FP 485-520-520 optic modules. Binding curves were fitted using the four-parameter logistic model with a variable Hill slope using Prism software (Graphpad). Regression fitting was performed using the least squares optimisation algorithm.
KD values were estimated from the fitted IC 50 parameters using a previously reported

[2] = test system: RAD51 foci in U2OS cells; assay: Immunofluorescence of IR-induced RAD51 foci formation; format: cell-based, human; details: 40 μM peptide for 1 hour, then 3 Gy IR or no radiation, 3 hours recovery, five independent experiments
Method: We monitored the ability of SP30 and SP31 to disrupt IR-induced RAD51 foci formation using IF. Cells were pre-incubated with the peptides or with vehicle (control), after which they were either treated with no radiation or with 3 Gy IR and imaged after a 3 hours recovery. We observed RAD51 foci in the absence of peptide and IR treatment, which likely reflects recombination events associated with the basal replicative stress of U2OS cells (Fig. 5 and S4 ^†). As expected, IR treatment of control cells leads to an apparent increase in the number of RAD51 foci (Fig. 5 and S4 ^†). […] We also tested whether a linear version of SP31 (L31) also affects IR-induced and baseline foci counts in five independent experiments (Fig. S5 and S6 ^†). […] It is possible that in some of the experiments the unstapled cysteines of L31 formed a disulfide bridge in the oxidising environment of cell culture, which protected it against proteolytic degradation, similarly to chemical stapling.
(A) Representative immunofluorescence images of U2OS cells incubated with SP30 (40 μM, SP30), SP31 (40 μM, SP31) or vehicle alone (control) for 1 hour, after which they were treated with 3 Gy ionising radiation (3 Gy 3 h) or no radiation (noIR) and allowed to recover for 3 hours. Cells were stained with α-RAD51 and Hoechst 33342 as indicated. Scale bar is 10 μm. […]

| Structure (SMILES) | Kd [1] [nM] | Effect on number of RAD51 foci [2] |
| --- | --- | --- |
| CC(C)C[C@@H]1NC(=O)[C@H](CCCCN)NC(=O)[C@H](CCCCN)NC(=O)CNC(=O)[C@H](CO)NC(=O)[C@H](C)NC(=O)[C@H]([C@@H](C)O)NC(=O)[C@H](CO)NC(=O)[C@H](Cc2ccccc2)NC(=O)CNC(=O)[C@H](CO)NC(=O)[C@@H](NC(=O)CN)CSCCc2cc(nc(N)n2)CCSC[C@@H](C(=O)N[C@@H](CCC(N)=O)C(=O)N[C@@H](CCCCN)C(=O)N[C@@H](C)C(=O)N[C@H](C(=O)N[C@@H](CCCCN)C(=O)N[C@@H](CC(C)C)C(=O)N[C@@H](Cc2ccccc2)C(=O)N[C@@H](CO)C(=O)NCC(=O)O)C(C)C)NC(=O)[C@H](C)NC(=O)[C@H](CCC(N)=O)NC(=O)[C@H]([C@@H](C)O)NC(=O)[C@H](CO)NC(=O)[C@H](C(C)C)NC(=O)[C@H](CC(N)=O)NC1=O [SP30] (H-GCSGFSTASGKKLNVSTQACQKAVKLFSG-OH; linker 2-20 via X1) | 13 | but not SP30, significantly reduces the number of RAD51 foci |
| CC(C)C[C@@H]1NC(=O)[C@H](CCCCN)NC(=O)[C@H](CCCCN)NC(=O)CNC(=O)[C@H](CO)NC(=O)[C@H](C)NC(=O)[C@H]([C@@H](C)O)NC(=O)[C@H](CO)NC(=O)[C@H](Cc2ccccc2)NC(=O)CNC(=O)[C@H](CO)NC(=O)[C@@H](NC(=O)CNC(=O)CNC(=O)[C@H](CCCNC(=N)N)NC(=O)[C@H](CCCNC(=N)N)NC(=O)[C@H](CCCNC(=N)N)NC(=O)[C@H](CCCNC(=N)N)NC(=O)[C@H](CCCNC(=N)N)NC(=O)[C@H](CCCNC(=N)N)NC(=O)[C@H](CCCNC(=N)N)NC(=O)[C@H](CCCNC(=N)N)NC(=O)[C@H](CCCNC(=N)N)NC(=O)CN)CSCCc2cc(nc(N)n2)CCSC[C@@H](C(=O)N[C@@H](CCC(N)=O)C(=O)N[C@@H](CCCCN)C(=O)N[C@@H](C)C(=O)N[C@H](C(=O)N[C@@H](CCCCN)C(=O)N[C@@H](CC(C)C)C(=O)N[C@@H](Cc2ccccc2)C(=O)N[C@@H](CO)C(=O)NCC(=O)O)C(C)C)NC(=O)[C@H](C)NC(=O)[C@H](CCC(N)=O)NC(=O)[C@H]([C@@H](C)O)NC(=O)[C@H](CO)NC(=O)[C@H](C(C)C)NC(=O)[C@H](CC(N)=O)NC1=O [SP31] (H-GRRRRRRRRRGGCSGFSTASGKKLNVSTQACQKAVKLFSG-OH; linker 13-31 via X1) | 14 | significantly reduces the number of RAD51 foci in both IR-treated and untreated cells; also recorded: disrupts RAD51 foci formation |
